For 3 molecules, IC50 results are on record in patent publication US5190937A, “Lactam derivatives” (Beecham Group p.l.c., priority 1990, dated 1993).

The target of the test is T1, human lung fibroblast collagenase (Homo sapiens, UniProt P03956).
T1 construct: purified from culture supernatants from the human lung fibroblast cell line, WI-38; endogenous in cells; host or cells: WI-38 (human lung fibroblast cell line), culture supernatant, purified
T1 sequence (P03956 100-469): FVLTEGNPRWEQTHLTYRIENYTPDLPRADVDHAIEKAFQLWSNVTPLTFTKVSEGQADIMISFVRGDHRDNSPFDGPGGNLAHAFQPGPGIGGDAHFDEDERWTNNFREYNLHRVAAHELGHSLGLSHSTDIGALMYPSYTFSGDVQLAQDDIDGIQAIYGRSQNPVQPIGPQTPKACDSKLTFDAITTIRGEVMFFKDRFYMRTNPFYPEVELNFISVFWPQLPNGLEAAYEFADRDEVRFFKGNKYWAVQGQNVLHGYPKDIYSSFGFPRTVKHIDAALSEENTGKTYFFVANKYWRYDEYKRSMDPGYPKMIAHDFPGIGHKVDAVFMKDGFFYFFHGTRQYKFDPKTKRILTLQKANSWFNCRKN
Put plainly: Collagenase inhibitor assay (degradation of 3H-acetylated rat skin type I collagen). The following applies: collagenase purified from WI-38 culture supernatants; 3H-acetylated rat skin type I collagen substrate; 5 min pre-incubation, 37° C. overnight; β-mercaptoethanol may be incorporated; read-out: IC50 (50% inhibitory concentration), inhibition of human lung fibroblast collagenase. The test is classed as biochemical. As for the experimental part: The test is performed essentially as in Cawston and Barrett, Anal. Biochem. 99, 340-345 (1979). Compounds for testing are dissolved in methanol by sonication and added to collagenase (purified from culture supernatants from the human lung fibroblast cell line, WI-38) in buffer. To ensure that thiol collagenase inhibitors remain unoxidised, β-mercaptoethanol may be incorporated in the methanol solvent and/or the diluent buffers to give a final concentration of 9.6×10-^5 M. The minimal direct effect of β-mercaptoethanol on the degradation of collagen by human collagenase is controlled for. After a 5 min pre-incubation at 37° C., the assay tubes are cooled to 4° C. and ^3 H-acetylated rat skin type I collagen is added. The assay tubes are incubated at 37° C. overnight. The ^3 H-collagen forms insoluble fibrils, which are the substrate for the enzyme.
To terminate the assay, the assay tubes are spun at 12000 rpm for 15 min. Undigested ^3 H-collagen is pelleted, while digested ^3 H-collagen is found as soluble peptides in the supernatant. A sample of the supernatant is taken for liquid scintillation counting.
The activity of collagenase inhibitors (IC50 :50% inhibitory concentration) is expressed as that concentration of compound that inhibits a known (standard) concentration of enzyme by 50%.
As for `CC(C)CC(C(=O)NC1CCCCCCCCCCNC1=O)C(S)CC(=O)O` (single isomer, unassigned) [Example E3A, 3-Mercapto-6-methyl-4-[(2-oxoazacyclotridec-3-yl)aminocarbonyl]heptanoic acid], the IC50 was 0.0745 µM.
For the molecule `COC(=O)CC(S)C(CC(C)C)C(=O)NC1CCCCCCCCCCNC1=O` (single isomer, unassigned) [Example E2A, 3-mercapto-6-methyl-4-[(2-oxoazacyclotridec-3-yl)aminocarbonyl]heptanoic acid, methyl ester], the IC50 was 0.0027 µM.
Next, `CC(C)CC(C(=O)NC1CCCCCCCCCCNC1=O)C(S)CC(=O)OC(C)C` (stereo not drawn) [Example E4A]: 0.015 µM.
